Data taken from article PMC3217850, “BACE-1 inhibition prevents the γ-secretase inhibitor evoked Aβ rise in human neuroblastoma SH-SY5Y cells” (Journal of Biomedical Science, 2011).
Blank lines part the entries; values can stand above or below the compound they belong to.

Experiments:
Aβ [1] = tested on: Aβ; parameters: method as in PMID 20363853; details: preclinically ref 13; cited from earlier work
AD patients = tested on: AD patients; parameters: method as in earlier work; details: phase III, AD patients ref 14; cited from earlier work
Aβ [2] = tested on: Aβ; parameters: method as in PMID 19360898; details: healthy volunteers ref 3; cited from earlier work
SH-SY5Y APPwt cells [3] = assay: Aβ42 secretion from SH-SY5Y APPwt cells, ELISA of culture medium; format: cell-based, human
Description: (§1) The human neuroblastoma cell line SH-SY5Y was purchased from European Collection of Cell Cultures (ECACC). Cells were grown in DMEM/Ham's F-12 (PAA), supplemented with 1% non-essential amino acids (PAA) and 10% Fetal Bovine Serum (PAA). Cells were maintained at 37°C in a humidified atmosphere containing 5% CO2.
(§2) SH-SY5Y cells were stably transfected with plasmids carrying human APPwt or APPswe gene. APP gene was purchased from Geneservice Ltd (clone sequence BC065529; clone MGC75167) and the APPswe mutation was generated using a QuikChange® Site-Directed Mutagenesis Kit (Stratagene). APPwt and APPswe genes were cloned into a mammalian expression vector pcDNA3.1 and the expression was under the control of CMV promotor. The cells were plated at the density of 6.25 × 10^4 cells/cm^2 in 6-well culture dishes (Sarstedt) and each well was transfected with 4 μg plasmid DNA. Lipofectamine™2000 (InVitrogen) was used as a transfection reagent according to manufacturer's instructions. […]
(§3) The secreted Aβ40 and Aβ42 peptides in cell culture media were measured using human amyloid β40 or β42 ELISA kits from Millipore. The absorbance was measured at 450 nm by Microplate reader (Molecular Devices). Data from inhibitor-treated cell cultures was expressed as a percent of untreated controls and the inhibition curves were analysed by non-linear regression using Graph Pad Prism.

SH-SY5Y APPswe cells [4] = assay: Aβ40 secretion from SH-SY5Y APPswe cells, ELISA of culture medium; format: cell-based, human; details: for IC50: Homo sapiens, 24 h
Description: as §1
(§4) SH-SY5Y cells were stably transfected with plasmids carrying human APPwt or APPswe gene. APP gene was purchased from Geneservice Ltd (clone sequence BC065529; clone MGC75167) and the APPswe mutation was generated using a QuikChange® Site-Directed Mutagenesis Kit (Stratagene). APPwt and APPswe genes were cloned into a mammalian expression vector pcDNA3.1 and the expression was under the control of CMV promotor. The cells were plated at the density of 6.25 × 10^4 cells/cm^2 in 6-well culture dishes (Sarstedt) and each well was transfected with 4 μg plasmid DNA. Lipofectamine™2000 (InVitrogen) was used as a transfection reagent according to manufacturer's instructions. The transfected cells were selected with 400 μg/ml G418 (PAA).
(§5) Cells were plated at a density of 6.25 × 10^4 cells/cm^2 in 96-well cell culture plates (TRP) for Aβ measurements with ELISA or in 6-well culture dishes (Sarstedt) for Western blot. The day after the plating of the cells, the cultures were treated with various concentrations of γ-secretase inhibitor LY450139 or the BACE inhibitor for 24 hours. Stock solutions of inhibitors were prepared in dimethyl-sulfoxide (DMSO). All cultures including the control cells received equal amounts of DMSO, the final concentration being 0.1%. All the results were from two to three separate experiments and the data presented as means ± SEM.
as §3

SH-SY5Y APPwt cells [5] = assay: Aβ40 secretion from SH-SY5Y APPwt cells, ELISA of culture medium; format: cell-based, human; details: for IC50: Homo sapiens, 24 h
Description: as §1, §4, §5, §3

SH-SY5Y APPswe cells [6] = assay: Aβ42 secretion from SH-SY5Y APPswe cells, ELISA of culture medium; format: cell-based, human; details: 3 nM LY450139, SH-SY5Y APPswe
Description: as §1, §2, §3

SH-SY5Y APPwt cells [7] = assay: Western blot (6E10 antibody) of APP substrate in cell lysates; format: cell-based, human; details: 3, 30 or 300 nM LY450139, 24 h
Description: as §5
SH-SY5Y cells were lysed in buffer containing 50 mM Tris-HCl pH 8.0, 150 mM NaCl, 1% Triton X-100, 1 mM EDTA, 1 mM Na3VO4 and 1 complete protease inhibitor cocktail tablet (Roche Diagnostics)/10 ml buffer. The cells were incubated with lysis buffer for 10 minutes on ice before scraping the cells from the dishes. Cell lysates were centrifuged at 14 000 rpm for 15 minutes. The protein content in the supernatants was measured using Pierce® 660 nm Protein Assay kit. Samples, containing 20 μg protein, were resolved in 7% NuPAGE®Tris-Acetate gels (InVitrogen) using Tris-Acetate SDS running buffer (InVitrogen). […] Average density of the bands was measured in ChemiDoc™XRS (Bio-Rad) by using Quantity One software.

Compound: CCC[C@H](N[C@H]1CCc2cc(F)cc(F)c2C1)C(=O)Nc1cn(C(C)(C)CNCC(C)(C)C)cn1 [PF-3084014]
Aβ rebound/rise attribute (Aβ [1]): lack this attribute

IC50 (SH-SY5Y APPswe cells [4]; SH-SY5Y APPswe, monophasic): 18 nM | IC50 (SH-SY5Y APPwt cells [5]; SH-SY5Y APPwt, inhibitory phase at > 30 nM, approximate): ~90 nM
Compound: CC(C)[C@H](O)C(=O)N[C@@H](C)C(=O)N[C@@H]1C(=O)N(C)CCc2ccccc21 [LY450139, (N)-((S)-2-hydroxy-3-methyl-butyryl)-1-(L-alaninyl)-(S)-amino-3-methyl-2,3,4,5-tetrahydro-1H-3-benzazepin-2-one dihydrate]
cognitive symptoms versus placebo (AD patients): fared worse than placebo-treated controls | effect on Aβ levels in the cerebrospinal fluid (Aβ [2]): lower Aβ levels | secreted Aβ42 levels increase compared to controls (SH-SY5Y APPwt cells [3]; 3 nM LY450139, SH-SY5Y APPwt): 70% | Aβ42 secretion after washout (SH-SY5Y APPwt cells [3]; 300 nM LY450139 24 h, then fresh medium 24 h, SH-SY5Y APPwt): returned to control levels | effect on Aβ40 secretion per se (SH-SY5Y APPswe cells [4]; 3 nM LY450139, SH-SY5Y APPswe): does not affect Aβ40-secretion per se | remaining Aβ40 secretion (SH-SY5Y APPswe cells [4]; 30 nM LY450139, SH-SY5Y APPswe): 20-30% | Aβ40 levels with 3 nM LY450139 in second 24 h (SH-SY5Y APPswe cells [4]; after 300 nM LY450139 for first 24 h, SH-SY5Y APPswe): did not lead to increased Aβ40 levels | Aβ40 levels increase above baseline (SH-SY5Y APPwt cells [5]; 3 nM LY450139, 24 h, SH-SY5Y APPwt): 60% | effect on basal Aβ40 levels (SH-SY5Y APPwt cells [5]; 30 nM LY450139 per se, SH-SY5Y APPwt): does not affect basal Aβ40 levels | reduction of Aβ40 secretion compared to control (SH-SY5Y APPwt cells [5]; 300 nM LY450139, 24 h, SH-SY5Y APPwt): 80% | fold less potent at inhibiting Aβ40 secretion from APPwt cells compared to APPswe cells (SH-SY5Y APPwt cells [5]; APPwt vs APPswe IC50): ~ 5 fold | Aβ40 production 2 - 6 hours after washout (SH-SY5Y APPwt cells [5]; LY450139 pre-treated vs control cells, data not shown): did not differ | Aβ40 levels increase with 3 nM LY450139 in second 24 h (SH-SY5Y APPwt cells [5]; after 300 nM LY450139 for first 24 h, compared to cells given fresh medium in second 24 h, SH-SY5Y APPwt): 60% | Aβ40 secretion during 24 h after washout (SH-SY5Y APPwt cells [5]; pre-treated 300 nM LY450139 24 h, then fresh medium 24 h, SH-SY5Y APPwt): did not differ from control cells | effect on secreted Aβ42 levels (SH-SY5Y APPswe cells [6]): not affected | substrate (APP bands, 6E10) level (SH-SY5Y APPwt cells [7]): accumulation of substrate

IC50 (SH-SY5Y APPswe cells [4]; BACE inhibitor alone, SH-SY5Y APPswe): 18 nM | IC50 (SH-SY5Y APPwt cells [5]; BACE inhibitor alone, SH-SY5Y APPwt): 7 nM
Compound: CCc1cn2c3c(cc(C(=O)N[C@@H](Cc4ccccc4)[C@H](O)CNC4CC4)cc13)N(C)S(=O)(=O)CC2 [BACE inhibitor, N-[(1S,2R)-1-Benzyl-3-(cyclopropylamino)-2-hydroxypropyl]-7-ethyl-1-methyl-3,4-dihydro-1H-[1,2, 5]thiadiazepino[3,4,5-hi-]indole-9-carboxamide 2,2-Dioxide]
concentration required to abolish the LY450139-evoked Aβ40 rise completely (SH-SY5Y APPwt cells [5]; SH-SY5Y APPwt): 30 nM
